The assay deals with T1, Cbl-b (truncated variant, UniProt number Q13191) (Homo sapiens, UniProt Q13191).
T1 construct: made in house
Kind of assay: Cbl-b activity assay (TR-FRET, interaction of Cbl-b with UbcH5B-Ub). It is filed as biochemical. A general note: TR-FRET usually uses a lanthanide donor and a delayed reading to cut background.

Setting [1] is: high conditions: 100 mM NaCl, 60 nM Src kinase, 12 nM Cbl-b, read-out: Cbl-b activity IC50.
Setting [2] is: Biological Example 1A, low or high conditions not stated, read-out: IC50 values in the Cbl-b inhibition assay of Biological Example 1A.

Like-named read-outs stand apart in the source and are kept apart here.

T1 sequence (Q13191 36-427): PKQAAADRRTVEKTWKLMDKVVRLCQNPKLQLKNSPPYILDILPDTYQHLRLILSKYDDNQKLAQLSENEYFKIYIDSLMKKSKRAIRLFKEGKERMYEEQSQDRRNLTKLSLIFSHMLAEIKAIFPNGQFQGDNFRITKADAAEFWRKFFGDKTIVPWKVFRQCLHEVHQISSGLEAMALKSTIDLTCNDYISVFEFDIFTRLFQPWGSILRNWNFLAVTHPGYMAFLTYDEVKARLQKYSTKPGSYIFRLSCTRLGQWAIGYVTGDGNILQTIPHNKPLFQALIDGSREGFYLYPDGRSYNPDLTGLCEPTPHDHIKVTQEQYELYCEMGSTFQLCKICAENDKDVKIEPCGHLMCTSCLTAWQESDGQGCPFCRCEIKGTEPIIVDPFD

Broadly, the IC50 is the concentration at which inhibition is half-maximal. Turning to `CC(CO)N(C)C(=O)Nc1cccc([C@H](C)Sc2nncn2C)c1` (stereo partly drawn) [Example 143, 1-(1-hydroxypropan-2-yl)-1-methyl-3-(3-((S)-1-((4-methyl-4H-1,2,4-triazol-3-yl)thio)ethyl)phenyl)urea], the IC50 under setting [1] was at least 5 µM.

On to `C[C@H](Sc1nncn1C)c1cccc(NC(=O)N2CCC23CCN(C)CC3)c1` [Example 126, (S)-7-methyl-N-(3-(1-((4-methyl-4H-1,2,4-triazol-3-yl)thio)ethyl)phenyl)-1,7-diazaspiro[3.5]nonane-1-carboxamide], for which the IC50 under setting [1] is at least 5 µM. For `C[C@H](Sc1nncn1C)c1cccc(-n2cc(-c3ccc(Cl)cc3)nn2)c1` [Example 73, (S)-4-(4-chlorophenyl)-1-(3-(1-((4-methyl-4H-1,2,4-triazol-3-yl)thio)ethyl)phenyl)-1H-1,2,3-triazole], the IC50 runs as follows: under setting [2], 1 to 5 µM; under setting [1], 1 to 5 µM. On to `C[C@H](Sc1nncn1C)c1cccc(-c2cc(-c3ccc(C#N)cc3)no2)c1` [Example 61, (S)-4-(5-(3-(1-(4-methyl-4H-1,2,4-triazol-3-ylthio)ethyl)phenyl)isoxazol-3-yl)benzonitrile], for which, under setting [1], the IC50 was 1 to 5 µM.

As for `Cc1cccc2c1CN(C(=O)Nc1cccc([C@H](C)Cc3nncn3C)c1)C2` [Example 13, (R)-4-methyl-N-(3-(1-(4-methyl-4H-1,2,4-triazol-3-yl)propan-2-yl)phenyl)isoindoline-2-carboxamide], the IC50 runs as follows: under setting [2], 0.1 to 1 µM; under setting [1], 0.1 to 1 µM. With `C[C@H](Cc1nncn1C)c1cccc(-c2cc(-c3ncccn3)n[nH]2)c1` [Example 106, (R)-2-(3-(3-(1-(4-methyl-4H-1,2,4-triazol-3-yl)propan-2-yl)phenyl)-1H-pyrazol-5-yl) pyrimidine], the IC50 under setting [1] lay in the range of 0.1 to 1 µM.

With `C[C@H](Sc1nncn1C)c1cccc(-n2cc(-c3ccc(C(N)=O)cc3)nn2)c1` [Example 87, (S)-4-(1-(3-(1-(4-methyl-4H-1,2,4-triazol-3-ylthio)ethyl)phenyl)-1H-1,2,3-triazol-4-yl)benzamide], the IC50 under setting [2] lay in the range of 1 to 5 µM and the concentration for half-maximal inhibition (IC50) under setting [1] was in the range of 1 to 5 µM.

Take `C[C@H](Sc1nncn1C)c1cccc(C(=O)Nc2ccc3ccccc3n2)c1` [Example 35, (S)-3-(1-((4-methyl-4H-1,2,4-triazol-3-yl)thio)ethyl)-N-(quinolin-2-yl)benzamide]: under setting [1], the IC50 was at least 5 µM.

Consider `CNS(=O)(=O)c1ccc(NC(=O)Nc2cccc([C@H](C)Sc3nncn3C)c2)cc1` [Example 163, (S)—N-methyl-4-(3-(3-(1-((4-methyl-4H-1,2,4-triazol-3-yl)thio)ethyl)phenyl)ureido)benzenesulfonamide], for which the IC50 under setting [1] is at least 5 µM. Take `C[C@H](Sc1nncn1C)c1cccc(NC(=O)N2CCOC3(CC3)C2)c1` [Example 48, (S)—N-(3-(1-((4-methyl-4H-1,2,4-triazol-3-yl)thio)ethyl)phenyl)-4-oxa-7-azaspiro[2.5]octane-7-carboxamide]: under setting [1], the IC50 was at least 5 µM. For `C[C@H](Sc1nncn1C)c1cccc(-n2cc(-c3cccc(C#N)c3)nn2)c1` [Example 98, (S)-3-(1-(3-(1-(4-methyl-4H-1,2,4-triazol-3-ylthio)ethyl)phenyl)-1H-1,2,3-triazol-4-yl)benzonitrile], the IC50 is at least 5 µM under setting [2] and at least 5 µM under setting [1].

In the case of `COc1ccc(-c2cnn(-c3cccc([C@H](C)Sc4nncn4C)c3)n2)cc1` [Example 74, (S)-4-(4-methoxyphenyl)-2-(3-(1-((4-methyl-4H-1,2,4-triazol-3-yl)thio)ethyl)phenyl)-2H-1,2,3-triazole], the IC50 reads like this: under setting [2], 0.1 to 1 µM; under setting [1], 0.1 to 1 µM. For `C[C@H](Sc1nncn1C)c1cccc(NC(=O)N2CCc3nocc3C2)c1` [Example 125, (S)—N-(3-(1-((4-methyl-4H-1,2,4-triazol-3-yl)thio)ethyl)phenyl)-6,7-dihydroisoxazolo[4,3-c]pyridine-5(4H)-carboxamide], under setting [1], the IC50 is at least 5 µM. On the same count and under the same terms, the value for `C[C@H](Sc1nncn1C)c1cccc(NC(=O)N2CC3(CCOC(=O)N3)C2)c1` [Example 141, (S)—N-(3-(1-((4-methyl-4H-1,2,4-triazol-3-yl)thio)ethyl)phenyl)-6-oxo-7-oxa-2,5-diazaspiro[3.5]nonane-2-carboxamide] was at least 5 µM. Take `C[C@H](Cc1nncn1C)c1cccc(NC(=O)N2CC(C)(C)c3cccnc32)c1` [Example 22, (R)-3,3-dimethyl-N-(3-(1-(4-methyl-4H-1,2,4-triazol-3-yl)propan-2-yl)phenyl)-2,3-dihydro-1H-pyrrolo[2,3-b]pyridine-1-carboxamide]: under setting [1], the IC50 lay in the range of 0.1 to 1 µM.

`C[C@H](Sc1nncn1C)c1cccc(-c2cc(-c3ccc(S(C)(=O)=O)cc3)no2)c1` [Example 66, ((S)-5-(3-(1-(4-methyl-4H-1,2,4-triazol-3-yl)thio)ethyl)phenyl)-3-(4-(methylsulfonyl)phenyl)isoxazole]: the IC50 was at least 5 µM under setting [2] and at least 5 µM under setting [1]. Regarding `Cc1ccc2[nH]nc(-c3cccc([C@H](C)Cc4nncn4C)c3)c2n1` [Example 119, (R)-5-methyl-3-(3-(1-(4-methyl-4H-1,2,4-triazol-3-yl)propan-2-yl)phenyl)-1H-pyrazolo [4,3-b]pyridine], the IC50 under setting [1] was in the range of 1 to 5 µM. Turning to `C[C@H](Sc1nncn1C)c1ccnc(NC(=O)Nc2ccccn2)c1` [Example 121, (S)-1-(4-(1-((4-methyl-4H-1,2,4-triazol-3-yl)thio)ethyl)pyridin-2-yl)-3-(pyridin-2-yl)urea], the IC50 under setting [1] was at least 5 µM. For the compound `C[C@H](Sc1nncn1C)c1cccc(NC(=O)N2CCN(c3cccnc3)CC2)c1` [Example 149, (S)—N-(3-(1-((4-methyl-4H-1,2,4-triazol-3-yl)thio)ethyl)phenyl)-4-(pyridin-3-yl)piperazine-1-carboxamide], under setting [1], the IC50 was at least 5 µM.

Regarding `C[C@H](Sc1nncn1C)c1cccc(NC(=O)N2CCn3nccc3C2)c1` [Example 44, (S)—N-(3-(1-((4-methyl-4H-1,2,4-triazol-3-yl)thio)ethyl)phenyl)-6,7-dihydropyrazolo[1,5-a]pyrazine-5(4H)-carboxamide], the IC50 under setting [1] is at least 5 µM. For `Cn1cnnc1CC1(c2cccc(NC(=O)N3CCOc4cccnc43)c2)COC1` [Example 23, N-(3-(3-((4-methyl-4H-1,2,4-triazol-3-yl)methyl)oxetan-3-yl)phenyl)-2,3-dihydro-4H-pyrido[3,2-b][1,4]oxazine-4-carboxamide], under setting [1], the IC50 was 0.1 to 1 µM. For the compound `CN1CCC2(CC1)CN(C(=O)Nc1cccc(C3(Cc4nncn4C)COC3)c1)c1ncccc12` [Example 31, 1-methyl-N-(3-(3-((4-methyl-4H-1,2,4-triazol-3-yl)methyl)oxetan-3-yl)phenyl)spiro[piperidine-4,3′-pyrrolo[2,3-b]pyridine]-1′(2′H)-carboxamide], the IC50 under setting [2] was in the range of 0.1 to 1 µM and the IC50 under setting [1] lay within 0.1 to 1 µM. Regarding `CC(Sc1nncn1C)c1ccnc(-c2cc(-c3ccccc3)no2)c1` (centres unmarked) [Example 71, 5-(4-(1-((4-methyl-4H-1,2,4-triazol-3-yl)thio)ethyl)pyridin-2-yl)-3-phenylisoxazole], the IC50 was at least 5 µM under setting [2] and at least 5 µM under setting [1]. Regarding `COc1cccc(-c2cn(-c3cccc([C@H](C)Sc4nncn4C)c3)nn2)c1` [Example 77, (S)-4-(3-methoxyphenyl)-1-(3-(1-((4-methyl-4H-1,2,4-triazol-3-yl)thio)ethyl)phenyl)-1H-1,2,3-triazole], under setting [1], the IC50 lay within 1 to 5 µM. Consider `C[C@H](Sc1nncn1C)c1cccc(NC(=O)N2CC(C(=O)N3CCC(O)CC3)C2)c1` [Example 140, (S)-3-(4-hydroxypiperidine-1-carbonyl)-N-(3-(1-((4-methyl-4H-1,2,4-triazol-3-yl)thio)ethyl)phenyl)azetidine-1-carboxamide], for which the IC50 under setting [1] is at least 5 µM.

`C[C@H](Cc1nncn1C)c1cccc(C(=O)Nc2cccc(C(F)(F)F)n2)c1` [Example 18, (R)-3-(1-(4-methyl-4H-1,2,4-triazol-3-yl)propan-2-yl)-N-(6-(trifluoromethyl)pyridin-2-yl)benzamide]: the IC50 under setting [2] was at least 5 µM and the IC50 under setting [1] was at least 5 µM.

For `C[C@H](Cc1nncn1C)c1ccnc(C(=O)Nc2cccc(C(F)(F)F)n2)c1` [Example 14, 4-[(2R)-1-(4-methyl-4H-1,2,4-triazol-3-yl)propan-2-yl]-N-[6-(trifluoromethyl)pyridin-2-yl]pyridine-2-carboxamide], the IC50 is, setting by setting: under setting [2], 0.1 to 1 µM; under setting [1], 0.1 to 1 µM. For the compound `Cc1cccc(NC(=O)c2cccc(C3(Cc4nncn4C)COC3)c2)n1` [Example 38, 3-(3-((4-methyl-4H-1,2,4-triazol-3-yl)methyl)oxetan-3-yl)-N-(6-methylpyridin-2-yl)benzamide], the IC50 reads like this: under setting [2], at least 5 µM; under setting [1], at least 5 µM. Consider `CNC(=O)c1cccc(-c2cnn(-c3cccc([C@H](C)Sc4nncn4C)c3)n2)c1` [Example 93, (S)—N-methyl-3-(2-(3-(1-(4-methyl-4H-1,2,4-triazol-3-ylthio)ethyl)phenyl)-2H-1,2,3-triazol-4-yl)benzamide], for which the IC50 under setting [2] fell in the range of 1 to 5 µM and the IC50 under setting [1] lay within 1 to 5 µM. Regarding `COc1cc(N2CCOCC2)ccc1NC(=O)Nc1cccc([C@H](C)Sc2nncn2C)c1` [Example 148, (S)-1-(2-methoxy-4-morpholinophenyl)-3-(3-(1-((4-methyl-4H-1,2,4-triazol-3-yl)thio)ethyl)phenyl)urea], the IC50 under setting [1] is at least 5 µM. With `CC(Sc1nncn1C)c1cccc(C(=O)Nc2ccccn2)c1` (centres unmarked) [Example 34, 3-(1-((4-methyl-4H-1,2,4-triazol-3-yl)thio)ethyl)-N-(pyridin-2-yl)benzamide], for the setting “low conditions: 50 mM NaCl, 30 nM Src kinase, 12 nM Cbl-b, read-out: Cbl-b activity IC50”, the IC50 is at least 5 µM. For the compound `Cn1cnnc1CC1(c2cccc(NC(=O)N3CC4(CNC4)Oc4cccnc43)c2)COC1` [Example 27, N-(3-(3-((4-methyl-4H-1,2,4-triazol-3-yl)methyl)oxetan-3-yl)phenyl)spiro[azetidine-3,2′-pyrido[3,2-b][1,4]oxazine]-4′(3′H)-carboxamide], under setting [1], the IC50 was below 0.1 µM.

These data come from US12653809B2, “Urea, amide, and substituted heteroaryl compounds for CBL-B inhibition” (Nurix Therapeutics, Inc., priority 2019, dated 2026).
